Laboratory results from US20240225056A1, “Rhodotorula Capable of Efficiently Degrading Ethyl Carbamate and Application Thereof” (priority 2022, published 2024).

The compounds below were run on R. toruloides DL-XSY01 (assay: Antibiotic sensitivity test, disc diffusion method). Settings: YPD-agar, 28° C., 24 h.
Format: cell-based
Method: The antibiotic sensitivity spectrum of the R. toruloides DL-XSY01 was characterized by using a disc diffusion method. […] The above medium with each type of paper was statically cultured at 28° C. for 24 h, and then the diameter of an inhibition zone was measured and counted; and analysis was performed on the drug resistance R (≤14 mm), intermediate-phase I (14-20 mm) or sensitivity S (≥20 mm), with three replicates for each group.

Compound	Antibiotic sensitivity of DL-XSY01 (in words)	Antibiotic sensitivity of DL-XSY01 (inhibition zone class)
NCC[C@H](O)C(=O)N[C@@H]1C[C@H](N)[C@@H](O[C@H]2O[C@H](CN)[C@@H](O)[C@H](O)[C@H]2O)[C@H](O)[C@H]1O[C@H]1O[C@H](CO)[C@@H](O)[C@H](N)[C@H]1O [Amikacin]	sensitive	S (sensitivity S (≥20 mm))
CC1(C)S[C@@H]2[C@H](NC(=O)[C@H](N)c3ccccc3)C(=O)N2[C@H]1C(=O)O [Ampicillin]	sensitive	S (sensitivity S (≥20 mm))
Cc1nnc(SCC2=C(C(=O)O)N3C(=O)[C@@H](NC(=O)Cn4cnnn4)[C@H]3SC2)s1 [Cefazolin]	sensitive	S (sensitivity S (≥20 mm))
CC1=C(C(=O)O)N2C(=O)[C@@H](NC(=O)[C@H](N)c3ccccc3)[C@H]2SC1 [Cephalexin]	moderately sensitive	I (intermediate-phase I (14-20 mm))
CC[C@H]1OC(=O)[C@H](C)[C@@H](O[C@H]2C[C@@](C)(OC)[C@@H](O)[C@H](C)O2)[C@H](C)[C@@H](O[C@@H]2O[C@H](C)C[C@H](N(C)C)[C@H]2O)[C@](C)(O)C[C@@H](C)C(=O)[C@H](C)[C@@H](O)[C@]1(C)O [Erythromycin]	sensitive	S (sensitivity S (≥20 mm))
CN(C)c1ccc(O)c2c1C[C@H]1C[C@H]3[C@H](N(C)C)C(O)=C(C(N)=O)C(=O)[C@@]3(O)C(O)=C1C2=O [Minocycline]		S (sensitivity S (≥20 mm))
CC1(C)S[C@@H]2[C@H](NC(=O)Cc3ccccc3)C(=O)N2[C@H]1C(=O)O [Penicillin G]	sensitive	S (sensitivity S (≥20 mm))
[H]/N=C(/N)N[C@H]1[C@H](O)[C@@H](O)[C@H](O[C@@H]2O[C@@H](C)[C@](O)(C=O)[C@H]2O[C@@H]2O[C@@H](CO)[C@H](O)[C@@H](O)[C@@H]2NC)[C@@H](N/C(N)=N\[H])[C@@H]1O [Streptomycin]	sensitive	S (sensitivity S (≥20 mm))
CN(C)[C@@H]1C(O)=C(C(N)=O)C(=O)[C@@]2(O)C(O)=C3C(=O)c4c(O)cccc4[C@@](C)(O)[C@H]3C[C@@H]12 [Tetracycline]		S (sensitivity S (≥20 mm))
CN[C@H](CC(C)C)C(=O)N[C@H]1C(=O)N[C@@H](CC(N)=O)C(=O)N[C@H]2C(=O)N[C@H]3C(=O)N[C@H](C(=O)N[C@H](C(=O)O)c4cc(O)cc(O)c4-c4cc3ccc4O)[C@H](O)c3ccc(c(Cl)c3)Oc3cc2cc(c3O[C@@H]2O[C@H](CO)[C@@H](O)[C@H](O)[C@H]2O[C@H]2C[C@](C)(N)[C@H](O)[C@H](C)O2)Oc2ccc(cc2Cl)[C@H]1O [Vancomycin]	sensitive	S (sensitivity S (≥20 mm))
Gentamicin	sensitive	S (sensitivity S (≥20 mm))
